The values that follow come from article PMC7238120, “Strong and Selective Inhibitory Effects of the Biflavonoid Selamariscina A against CYP2C8 and CYP2C9 Enzyme Activities in Human Liver Microsomes” (Pharmaceutics, 2020).

Read-outs that look alike come from different tables or passages of the source. Bounds are passed on as bounds.

Common to all, as to type: in vitro ADME
One data set deals with T1, CYP2D6 (Homo sapiens, UniProt P10635).
T1 construct: incubation mixtures containing pooled human liver microsomes (HLMs, XTreme 200, XenoTech); tissue XenoTech XTreme 200; host or cells: pooled human liver microsomes
As to the kind of experiment: Inhibition of CYP2D6 (dextromethorphan) activity in pooled human liver microsomes. The note with it: substrate dextromethorphan 5 µM; pooled HLMs; read-out: IC50, P450 2D6. How it is done:
(§1) The inhibitory potential of the five biflavonoids on the metabolism of nine P450 probe substrates was evaluated using previously developed methods with minor modifications. Biflavonoids were dissolved in methanol. The final concentration of methanol in the incubation mixture was 1.0% (v/v). We used these P450 probe substrates: phenacetin for CYP1A2, coumarin for CYP2A6, bupropion for CYP2B6, amodiaquine for CYP2C8, diclofenac for CYP2C9, omeprazole for CYP2C19, dextromethorphan for CYP2D6, chlorzoxazone for CYP2E1 and midazolam for CYP3A (Table 1). The incubation mixtures containing pooled human liver microsomes (HLMs, XTreme 200, XenoTech), P450 probe substrates, and inhibitor (0~20 µM) were pre-incubated at 37 °C for 5 min. The concentration range of the inhibitor varied (0, 0.002, 0.005, 0.02, 0.05, and 0.2 µM for CYP2C8; 0, 0.02, 0.05, 0.2, 0.5, and 2 µM for CYP2C9; 0, 0.5, 2, 5, 10, and 20 µM for other P450 isoforms). After pre-incubation, a reduced nicotinamide adenine dinucleotide phosphate (NADPH) generation system containing 1 unit/ml G6PDH, 1.3 mM β- nicotinamide adenine dinucleotide phosphate (β- NADP^+), 3.3 mM MgCl2, and 3.3 mM G6P was added to initiate a reaction, and further incubated for 10 min at 37 °C. The reaction was stopped by adding 50 μL of ice-cold acetonitrile containing 7 nM trimipramine (internal standard, IS). After centrifugation at 18,000 g (5 min, 4 °C), aliquots of supernatants were analyzed by LC–MS/MS (Shimadzu LCMS 8060 system, Shimadzu, Kyoto, Japan). All microsomal incubations were conducted in triplicate.
(§2) All metabolites and the IS were separated on a Kinetex XB-C18 column (100 × 2.10 mm, 2.6 μm, 100 Å; Phenomenex, Torrance, CA, USA) and analyzed using a Shimadzu LCMS 8060 triple-quadrupole mass spectrometer coupled with a Nexera X2 ultra high-performance liquid chromatography system (Shimadzu, Kyoto, Japan) equipped with an electrospray ionization interface. The mobile phase consisted of 0.1% formic acid in water (A) and 0.1% formic acid in acetonitrile (B). The elution condition was set as 8% B (0–0.5 min), 8%→60% B (0.5–5 min), 60% B (5–6 min), 60%→8% B (6–6.1 min) and 8% B (6.1–9 min) for the analysis of metabolites of P450 probe substrates and set as 0%→40% B (0–1 min), 40%→50% B (1–5 min), 50%→0% B (5–5.1 min), and 0% B (5.1–8 min) for the analysis of metabolites of UGT probe substrates. The flow rate was 0.2 mL/min. Electrospray ionization was performed in positive-ion mode at 4000 V or in negative-ion mode at −3500 V. The optimum operating conditions were determined as follows: vaporizer temperature, 300 °C; capillary temperature, 350 °C; collision gas (argon) pressure, 1.5 mTorr. Quantitation was conducted in selected reaction monitoring (SRM) modes with the precursor-to-product ion transition for each metabolite (Table 1 and Table 2).
(§3) We analyzed the data with Shimadzu LabSolution LC–MS software. The IC50 values were calculated by WinNonlin software (Pharsight, Mountain View, CA, USA). The type of inhibition and the apparent kinetic parameters for inhibitory activity (Ki) were determined by following several criteria: visual inspection of Dixon plots, Lineweaver–Burk double reciprocal plots, and secondary plots of Lineweaver–Burk plots versus biflavonoid concentrations, the size of the sum of squares of the residuals, Akaike Information Criteria values, the S.E. and 95% confidence interval of the parameter estimates from the nonlinear regression analysis using the WinNonlin software. The models tested included competitive, competitive partial, noncompetitive, noncompetitive partial, uncompetitive, uncompetitive partial, and mixed-type inhibition.

Another data set has as its target T2, CYP2C19 (Homo sapiens, UniProt P33261).
T2 construct: incubation mixtures containing pooled human liver microsomes (HLMs, XTreme 200, XenoTech); tissue XenoTech XTreme 200; host or cells: pooled human liver microsomes
The data set is described as follows: Inhibition of CYP2C19 (omeprazole) activity in pooled human liver microsomes. The note with it: substrate omeprazole 20 µM; pooled HLMs; read-out: IC50, P450 2C19. How it is done: as §1, §2, §3

A further data set deals with CYP3A (Homo sapiens, UniProt P08684). The data set is described as follows: Inhibition of CYP3A-catalyzed midazolam 1'-hydroxylation in pooled human liver microsomes. How it is done: The inhibitory potential of the five biflavonoids on the metabolism of nine P450 probe substrates was evaluated using previously developed methods with minor modifications. Biflavonoids were dissolved in methanol. The final concentration of methanol in the incubation mixture was 1.0% (v/v). We used these P450 probe substrates: phenacetin for CYP1A2, coumarin for CYP2A6, bupropion for CYP2B6, amodiaquine for CYP2C8, diclofenac for CYP2C9, omeprazole for CYP2C19, dextromethorphan for CYP2D6, chlorzoxazone for CYP2E1 and midazolam for CYP3A (Table 1). […] The reaction was stopped by adding 50 μL of ice-cold acetonitrile containing 7 nM trimipramine (internal standard, IS). After centrifugation at 18,000 g (5 min, 4 °C), aliquots of supernatants were analyzed by LC-MS/MS (Shimadzu LCMS 8060 system, Shimadzu, Kyoto, Japan). All microsomal incubations were conducted in triplicate. We used HLMs to determine the mechanisms and constants (Ki values) for […] A inhibition of CYP1A2, CYP2B6, CYP2C8, CYP2C9 and CYP3A. […] The substrates were used at concentrations approximately near to their respective Km values. […] The other conditions were the same as in the cytochrome P450 inhibition study. […] Phenomenex, Torrance, CA, USA) and analyzed using a Shimadzu LCMS 8060 triple-quadrupole mass spectrometer coupled with a Nexera X2 ultra high-performance liquid chromatography system (Shimadzu, Kyoto, Japan) equipped with an electrospray ionization interface. The mobile phase consisted of 0.1% formic acid in water (A) and 0.1% formic acid in acetonitrile (B). […] The flow rate was 0.2 mL/min. Electrospray ionization was performed in positive-ion mode at 4000 V or in negative-ion mode at -3500 V. […] Quantitation was conducted in selected reaction monitoring (SRM) modes with the precursor-to-product ion transition for each metabolite (Table 1 and Table 2). We analyzed the data with Shimadzu LabSolution LC-MS software. The IC50 values were calculated by WinNonlin software (Pharsight, Mountain View, CA, USA). The type of inhibition and the apparent kinetic parameters for inhibitory activity (Ki) were determined by following several criteria: visual inspection of Dixon plots, Lineweaver-Burk double reciprocal plots, and secondary plots of Lineweaver-Burk plots versus biflavonoid concentrations, the size of the sum of squares of the residuals, Akaike Information Criteria values, the S.E. and 95% confidence interval of the parameter estimates from the nonlinear regression analysis using the WinNonlin software. The models tested included competitive, competitive partial, noncompetitive, noncompetitive partial, uncompetitive, uncompetitive partial, and mixed-type inhibition.

[1] abbreviates: human, pooled human liver microsomes, probe midazolam (5 µM), substrate midazolam 5 µM, pooled HLMs, read-out: IC50, P450 3A.

T2 sequence (P33261 whole entry): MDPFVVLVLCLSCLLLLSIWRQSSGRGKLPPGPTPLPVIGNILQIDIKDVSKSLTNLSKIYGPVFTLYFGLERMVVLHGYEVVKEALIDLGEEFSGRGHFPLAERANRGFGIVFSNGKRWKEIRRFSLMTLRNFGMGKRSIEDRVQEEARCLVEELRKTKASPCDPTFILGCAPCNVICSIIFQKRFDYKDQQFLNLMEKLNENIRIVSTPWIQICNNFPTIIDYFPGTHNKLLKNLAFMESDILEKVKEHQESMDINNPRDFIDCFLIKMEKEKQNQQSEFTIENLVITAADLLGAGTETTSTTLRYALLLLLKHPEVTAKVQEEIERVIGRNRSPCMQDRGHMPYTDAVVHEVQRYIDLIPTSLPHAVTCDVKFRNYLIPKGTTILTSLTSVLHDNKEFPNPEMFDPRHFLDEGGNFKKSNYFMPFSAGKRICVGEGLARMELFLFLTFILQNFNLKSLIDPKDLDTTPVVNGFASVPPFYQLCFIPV
T1 sequence (P10635 whole entry): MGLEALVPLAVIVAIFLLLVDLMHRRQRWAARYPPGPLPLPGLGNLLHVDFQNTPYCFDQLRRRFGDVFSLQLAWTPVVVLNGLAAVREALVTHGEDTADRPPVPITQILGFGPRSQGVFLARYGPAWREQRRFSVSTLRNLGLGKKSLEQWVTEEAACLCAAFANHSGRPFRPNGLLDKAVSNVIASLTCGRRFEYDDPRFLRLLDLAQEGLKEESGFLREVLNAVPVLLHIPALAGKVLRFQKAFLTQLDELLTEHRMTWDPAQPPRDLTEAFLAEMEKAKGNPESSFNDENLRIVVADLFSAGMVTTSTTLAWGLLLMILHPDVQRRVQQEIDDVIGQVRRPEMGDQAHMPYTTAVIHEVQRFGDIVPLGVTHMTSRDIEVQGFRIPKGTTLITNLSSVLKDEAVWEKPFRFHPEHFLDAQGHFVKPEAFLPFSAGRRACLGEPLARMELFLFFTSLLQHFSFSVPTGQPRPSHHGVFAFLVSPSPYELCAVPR
Chain of CYP3A (P08684 2-503): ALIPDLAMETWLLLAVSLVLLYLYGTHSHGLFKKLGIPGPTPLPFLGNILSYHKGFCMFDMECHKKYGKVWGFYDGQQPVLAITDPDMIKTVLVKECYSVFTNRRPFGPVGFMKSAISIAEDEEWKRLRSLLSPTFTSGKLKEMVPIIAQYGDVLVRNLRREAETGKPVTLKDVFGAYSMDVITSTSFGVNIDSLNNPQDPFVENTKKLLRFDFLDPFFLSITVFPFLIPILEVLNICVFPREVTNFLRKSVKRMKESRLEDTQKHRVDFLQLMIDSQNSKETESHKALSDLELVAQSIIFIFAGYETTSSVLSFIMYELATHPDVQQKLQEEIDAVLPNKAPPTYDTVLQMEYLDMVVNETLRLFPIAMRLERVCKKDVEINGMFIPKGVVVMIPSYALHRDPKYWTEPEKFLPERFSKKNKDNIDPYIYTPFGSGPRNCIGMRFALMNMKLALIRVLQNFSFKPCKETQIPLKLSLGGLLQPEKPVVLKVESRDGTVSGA

On to `O=c1cc(-c2ccc(O)c(-c3c(-c4ccc(O)cc4)oc4cc(O)cc(O)c4c3=O)c2)oc2cc(O)cc(O)c12` [taiwaniaflavone], for which the IC50 at CYP2D6 was found to be 3.2 µM; at CYP2C19, 5 µM. The 50% inhibitory concentration (IC50) at 10 min at CYP3A (setting [1]) turned out to be 1.2 µM.

For `O=C1CC(c2cc(-c3c(O)ccc4c(=O)cc(-c5ccc(O)cc5)oc34)c(O)cc2O)Oc2cc(O)cc(O)c21` (centres unmarked) [selamariscina A], the IC50 at CYP2D6 was found to be 10.6 µM; on CYP2C19, 13.3 µM. For the same compound, the “Mode of Inhibition, CYP3A midazolam” value on CYP3A (HLMs) was “Noncompetitive”. On CYP3A (setting [1]), the IC50 at 10 min was determined as 2.7 µM. Further, the Ki at 10 min at CYP3A (human, pooled human liver microsomes, probe midazolam (0.5, 2, 5 μM), HLMs, average ± standard error, triplicate) is 4.5 ± 0.5 µM.

For `O=c1cc(-c2ccc(O)cc2)oc2c(-c3c(O)cc(O)c4c(=O)cc(-c5ccc(O)cc5)oc34)c(O)cc(O)c12` [cupressuflavone], the results for the concentration for half-maximal inhibition (IC50) at CYP2D6 and on CYP2C19 were 2.7 µM and 3 µM, respectively. In addition, the IC50 at 10 min at CYP3A (setting [1]) came to 1.5 µM.

Consider `O=c1cc(-c2ccc(O)c(-c3c(O)cc4oc(-c5ccc(O)cc5)cc(=O)c4c3O)c2)oc2cc(O)cc(O)c12` [robustaflavone], for which the IC50 at CYP2D6 turned out to be 2.2 µM; on CYP2C19 it was 6.4 µM. Moreover, the IC50 at 10 min on CYP3A (setting [1]) was 1.2 µM.

As to `O=c1cc(-c2ccc(O)c(-c3c(O)cc(O)c4c(=O)cc(-c5ccc(O)cc5)oc34)c2)oc2cc(O)cc(O)c12` [amentoflavone], the IC50 at CYP2D6 is 2.6 µM; on CYP2C19, 3.4 µM. This compound came in with an IC50 at 10 min against CYP3A (human, microsomes) of 1.3 µM.

Regarding `CC(C)(O)c1ccccc1CC[C@@H](SCC1(CC(=O)O)CC1)c1cccc(/C=C/c2ccc3ccc(Cl)cc3n2)c1` [montelukast, reference compound], the IC50 at CYP2D6 and on CYP2C19 was > 50 µM in each case. Also, on CYP3A (human, microsomes), the IC50 at 10 min was > 50 µM.
